Reference: US8946439B2, “Amide compounds, compositions and uses thereof” (Evotec AG, priority 2008, dated 2015)
pIC50: −log10 of the molar value. Where two headings read alike, the source gives them in different places.

Columns and labels:
hP2X3 = target: T1, hP2X3 (Homo sapiens, UniProt P56373); experiment: Calcium uptake assay (P2X antagonist assay), P2X3 homomer; format: cell-based; details: hP2X3; for pIC50: Ca influx (calcium uptake assay), read-out: IC50 hP2X3; for IC50: calcium uptake assay, read-out: IC50 hP2X3 (nM), Ca Influx
T1 construct: expressed in transfected cells; host or cells: e.g. HEK293 or 1321N1
T1 sequence (P56373 1-397): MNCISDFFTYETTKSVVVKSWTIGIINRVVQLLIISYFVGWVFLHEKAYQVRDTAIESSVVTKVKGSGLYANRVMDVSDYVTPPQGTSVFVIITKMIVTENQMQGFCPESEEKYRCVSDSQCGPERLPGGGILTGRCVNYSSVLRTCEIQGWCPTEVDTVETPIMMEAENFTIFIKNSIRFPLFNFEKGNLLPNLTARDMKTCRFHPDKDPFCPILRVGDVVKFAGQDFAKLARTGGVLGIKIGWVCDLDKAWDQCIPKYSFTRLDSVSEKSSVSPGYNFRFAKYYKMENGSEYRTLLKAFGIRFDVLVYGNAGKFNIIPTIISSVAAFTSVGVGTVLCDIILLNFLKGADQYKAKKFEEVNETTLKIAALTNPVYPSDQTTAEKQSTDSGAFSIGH
How it was run: (§1)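 Stably or transiently transfected HEK293 or 1321N1 cells; the heteromer is made by adding P2X3 to a P2X2-stable line, with heteromer function isolated pharmacologically. The peak-minus-baseline FLIPR calcium signal gives % inhibition and a 4-parameter-logistic IC50.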

hP2X2/3H = target: T2, hP2X2/3H (Homo sapiens, UniProt P56373+Q9UBL9); experiment: Calcium uptake assay (P2X antagonist assay), P2X2/3 heteromer; format: cell-based; details: hP2X2/3H; for pIC50: Ca influx (calcium uptake assay), read-out: IC50 hP2X2/3H; for IC50: calcium uptake assay, read-out: IC50 hP2X2/3H (nM), Ca Influx
T2 construct: expressed in transfected cells; host or cells: e.g. HEK293 or 1321N1
T2 sequence (Q9UBL9 1-471): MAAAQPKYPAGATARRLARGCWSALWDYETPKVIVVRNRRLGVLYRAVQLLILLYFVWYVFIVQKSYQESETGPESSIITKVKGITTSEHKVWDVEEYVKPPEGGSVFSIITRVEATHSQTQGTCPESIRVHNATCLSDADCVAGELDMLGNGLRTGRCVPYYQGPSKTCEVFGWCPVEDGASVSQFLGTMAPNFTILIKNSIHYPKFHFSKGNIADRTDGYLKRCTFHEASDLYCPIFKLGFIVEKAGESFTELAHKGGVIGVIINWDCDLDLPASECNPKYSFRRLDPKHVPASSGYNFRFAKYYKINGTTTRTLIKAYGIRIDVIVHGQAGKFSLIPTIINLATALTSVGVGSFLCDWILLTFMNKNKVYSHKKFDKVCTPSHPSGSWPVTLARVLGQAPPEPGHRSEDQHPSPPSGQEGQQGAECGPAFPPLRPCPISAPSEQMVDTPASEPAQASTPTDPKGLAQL
T2 sequence (P56373 1-397): T1 sequence (P56373 1-397)
How it was run: as §1

Row | pIC50 (hP2X3) | pIC50 (hP2X2/3H) | IC50 (hP2X3) [nM] | IC50 (hP2X2/3H) [nM] | SMILES
1 | 6.30 to 7.00 | < 6.00 | – | – | Cc1ccc(-c2cc(C(=O)NCc3ccc(C)nc3)cc(C(F)(F)F)c2)nc1 [Compound 202]
2 | – | – | < 100 | 100 to 500 | Cc1ccc(-c2cc(C(=O)NCc3ccc(C)nc3)cc(C(=O)N(C)[C@H]3CCNC3)c2)cc1 [Compound 172]
3 | > 7.00 | 6.30 to 7.00 | – | – | Cc1ccc(-c2cc(Oc3nccs3)cc(C(=O)NCc3cnc(C)nc3)c2)c(C#N)c1 [Compound 261]
4 | – | – | < 100 | < 100 | Cc1ccc(-c2cc(C(=O)NCc3ccc(C)nc3)cc(C(=O)N(C)Cc3ccncc3)c2)cc1 [Compound 162, N3,4′-Dimethyl-N-5-((6-methylpyridin-3-yl)methyl)-N3-(pyridin-4-ylmethyl)biphenyl-3,5-dicarboxamide]
5 | – | – | < 100 | < 100 | Cc1ccc(-c2cc(C(=O)NCc3cnc(C)nc3)cc(C(=O)N3CCCC3)c2)cc1 [Compound 20, 4′-Methyl-N-((2-methylpyrimidin-5-yl)methyl)-5-(pyrrolidine-1-carbonyl)biphenyl-3-carboxamide]
6 | – | – | < 100 | < 100 | Cc1ccc(-c2cc(C(=O)N[C@H](C)c3ccc(C(F)(F)F)nc3)cc(C(=O)N3CC(O)C3)c2)cc1 [Compound 85]
7 | – | – | < 100 | < 100 | Cc1ccc(-c2cc(C(=O)NCc3ncc(C(F)(F)F)cc3Cl)cc(C(=O)N3CC(O)C3)c2)cc1 [Compound 129]
8 | > 7.00 | 6.30 to 7.00 | – | – | Cc1ccc(-c2cc(CO)cc(C(=O)N[C@H](C)c3cnc(C)nc3)c2)c(C#N)c1 [Compound 303]
9 | – | – | < 100 | < 100 | CCCS(=O)(=O)c1cc(C(=O)NCc2ccc(C)nc2)cc(-c2ccc(C)cc2)c1 [Compound 56]
10 | > 7.00 | 6.30 to 7.00 | – | – | Cc1ccc(-c2cc(OCC(O)CO)cc(C(=O)N[C@H](C)c3ccc(C)nc3)c2)nc1 (some centres unmarked) [Compound 344]
11 | > 7.00 | > 7.00 | – | – | Cc1ccc(-c2cc(C(=O)N[C@H](CO)c3cnc(C)nc3)cc(S(C)(=O)=O)c2)cc1 [Compound 221, (S)—N-(2-Hydroxy-1-(2-methylpyrimidin-5-yl)ethyl)-4′-methyl-5-(methylsulfonyl)biphenyl-3-carboxamide]
12 | – | – | < 100 | 100 to 500 | Cc1ccc(-c2cc(C(=O)NCc3ccc(C)nc3)cc(C(=O)N(C)c3ccccn3)c2)cc1 [Compound 164]
13 | – | – | < 100 | < 100 | Cc1ccc(-c2cc(C(=O)N[C@H](C)c3cnc(C)nc3)cc(S(C)(=O)=O)c2)cc1 [Compound 116, (R)-4′-Methyl-N-(1-(2-methylpyrimidin-5-yl)ethyl)-5-(methylsulfonyl)biphenyl-3-carboxamide]
14 | – | – | < 100 | 100 to 500 | Cc1ccc(-c2cc(C(=O)NC(C)c3csc(C)n3)cc(C(=O)N3CCCC3)c2)cc1 (centres unmarked) [Compound 111, 4′-Methyl-N-(1-(2-methylthiazol-4-yl)ethyl)-5-(pyrrolidine-1-carbonyl)biphenyl-3-carboxamide]
15 | > 7.00 | > 7.00 | – | – | Cc1ccc(-c2cc(C(=O)N[C@H](C)c3cnc(C)nc3)cc(S(=O)(=O)C3CCCC3)c2)cc1 [Compound 219, (R)-5-(Cyclopentylsulfonyl)-4′-methyl-N-(1-(2-methylpyrimidin-5-yl)ethyl)biphenyl-3-carboxamide]
16 | – | – | < 100 | < 100 | Cc1ccc(-c2cc(C(=O)NC(C)c3ccc(C)nc3)cc(C(=O)N3CCCC3)c2)nc1 (centres unmarked) [Compound 118]
17 | – | – | < 100 | < 100 | Cc1ccc(-c2cc(C(=O)NCc3ccc(C)nc3)cc(C(=O)N3CC(O)C3)c2)cc1 [Compound 132]
18 | – | – | < 100 | 501 to 1000 | Cc1ccc(-c2cc(C(=O)N[C@@H](C)CN3CCOCC3)cc(C(=O)N3CCCC3)c2)cc1 [Compound 82]
19 | > 7.00 | > 7.00 | – | – | Cc1ccc(-c2cc(C(=O)N[C@H](C)c3cnc(C)nc3)cc(C(O)c3ccccc3)c2)nc1 (some centres unmarked) [Compound 277]
20 | – | – | < 100 | 100 to 500 | Cc1ccc(-c2cc(C(=O)NCc3ccc(C)nc3)cc(C(=O)N(C)C)c2)cc1 [Compound 166, N3,N3,4′-Trimethyl-N5-((6-methylpyridin-3-yl)methyl)biphenyl-3,5-dicarboxamide]

Row | pIC50 (hP2X3) | pIC50 (hP2X2/3H) | IC50 (hP2X3) [nM] | IC50 (hP2X2/3H) [nM] | SMILES
21 | – | – | < 100 | < 100 | Cc1ccc(-c2cc(C(=O)NCc3ccc4ocnc4c3)cc(C(=O)N3CCCC3)c2)cc1 [Compound 90]
22 | – | – | 100 to 500 | 100 to 500 | COc1ccc([C@@H](CO)NC(=O)c2cc(C(=O)N(C)CC(C)C)cc(-c3ccc(C)cc3)c2)cn1 [Compound 7, (S)—N3-(2-hydroxy-1-(6-methoxypyridin-3-yl)ethyl)-N5-isobutyl-N5,4′-dimethyl-biphenyl-3,5-dicarboxamide]
23 | > 7.00 | > 7.00 | – | – | Cc1ccc(-c2cc(Oc3nccs3)cc(C(=O)N[C@H](C)c3cnc(C)nc3)c2)c(C#N)c1 [Compound 254, (R)-2′-Cyano-4′-methyl-N-(1-(2-methylpyrimidin-5-yl)ethyl)-5-(thiazol-2-yloxy)biphenyl-3-carboxamide]
24 | – | – | 100 to 500 | 100 to 500 | Cc1ccc(-c2cc(C(=O)NCc3ccc4cccnc4c3)cc(C(=O)N3CCCC3)c2)cc1 [Compound 49, 4′-Methyl-5-(pyrrolidine-1-carbonyl)-N-(quinolin-7-ylmethyl)biphenyl-3-carboxamide]
25 | > 7.00 | 6.30 to 7.00 | – | – | Cc1ccc(-c2cc(Oc3nccs3)cc(C(=O)NCc3ccc(C)nc3)c2)c(C#N)c1 [Compound 260]
26 | – | – | < 100 | 100 to 500 | Cc1ccc(-c2cc(C(=O)NCc3ccn4ccnc4c3)cc(C(=O)N(C)CC(C)C)c2)cc1 [Compound 11, N3-(Imidazo[1,2-a]pyridin-7-ylmethyl)-N5-isobutyl-N5,4′-dimethylbiphenyl-3,5-dicarboxamide]
27 | – | – | 100 to 500 | > 1000 | Cc1ccc(-c2cc(C(=O)N[C@H](C)c3cnn4c3COCC4)cc(C(=O)N3CCCC3)c2)cc1 [Compound 110]
28 | > 7.00 | > 7.00 | – | – | Cc1ccc(-c2cc(C(=O)N[C@H](C)c3ccc(C)nc3)cc(C(O)CO)c2)c(C#N)c1 (some centres unmarked) [Compound 298]
29 | > 7.00 | > 7.00 | – | – | Cc1ccc(-c2cc(Oc3ncc(CO)s3)cc(C(=O)N[C@H](C)c3ccc(C)nc3)c2)nc1 [Compound 372]
30 | – | – | 100 to 500 | < 100 | Cc1ccc(-c2cc(C(=O)NCc3ccc(C)nc3)cc(C(=O)N3CCOc4ccccc43)c2)cc1 [Compound 190]
31 | > 7.00 | 6.30 to 7.00 | – | – | Cc1ccc(-c2cc(C(=O)NCc3ccc4c(c3)S(=O)(=O)CC4)cc(S(C)(=O)=O)c2)nc1 [Compound 352]
32 | – | – | 501 to 1000 | > 1000 | Cc1ccc(-c2cc(C(=O)NCc3cnc(C(C)C)nc3)cc(C(=O)N3CCCC3)c2)cc1 [Compound 80]
33 | > 7.00 | > 7.00 | – | – | Cc1ccc(-c2cc(C(=O)NCc3cnc(C)nc3)cc(C(O)c3ccccn3)c2)cc1 (centres unmarked) [Compound 267]
34 | > 7.00 | 6.30 to 7.00 | – | – | Cc1ccc(-c2cc(Oc3ncccn3)cc(C(=O)N[C@H](C)c3cnc(C)nc3)c2)c(C#N)c1 [Compound 247]
35 | – | – | < 100 | < 100 | CCCS(=O)(=O)c1cc(C(=O)NCc2ccc(C)c(S(C)(=O)=O)c2)cc(-c2ccc(C)cc2)c1 [Compound 41]
36 | – | – | 501 to 1000 | > 1000 | Cc1ccc(-c2cc(C(=O)N[C@H](C)c3cnn(CC(F)(F)F)c3C)cc(C(=O)N3CCCC3)c2)cc1 [Compound 117]
37 | 6.30 to 7.00 | > 7.00 | – | – | Cc1ccc(-c2cc(Oc3ccccn3)cc(C(=O)N[C@H](C)c3ccc(C)nc3)c2)cc1 [Compound 242, (R)-4′-Methyl-N-(1-(6-methylpyridin-3-yl)ethyl)-5-(pyridin-2-yloxy)biphenyl-3-carboxamide]
38 | – | – | < 100 | < 100 | Cc1ccc(-c2cc(C(=O)NCc3ccc(C)nc3)cc(S(=O)(=O)N3CCCC3)c2)nc1 [Compound 106]
39 | – | – | < 100 | < 100 | Cc1ccc(-c2cc(C(=O)NCc3cnc(C)nc3)cc(C(=O)N3CC(O)C3)c2)cc1 [Compound 29, 5-(3-Hydroxyazetidine-1-carbonyl)-4′-methyl-N-((2-methylpyrimidin-5-yl)methyl)biphenyl-3-carboxamide]
40 | – | – | < 100 | < 100 | Cc1ccc(-c2cc(C(=O)N[C@H](CO)c3ccc(C(F)(F)F)nc3)cc(C(=O)N3CCCC3)c2)cc1 [Compound 92]
